Paper PMC7948455, “Novel drug discovery platform for spinocerebellar ataxia, using fluorescence technology targeting β-III-spectrin” (The Journal of Biological Chemistry, 2020)
Each block holds one compound with its values, some of them ahead of it.

Assays:
[1] = target: T1, Lifeact-mCherry binding to actin (Oryctolagus cuniculus, UniProt P68135); assay: F-actin and Lifeact-mCherry cosedimentation assay
T1 construct: from tissue; host or cells: actin: rabbit psoas muscle; Lifeact-mCherry: made in house in E. coli (pE-SUMOpro)
Experimental: Actin was purified from acetone powder derived from the psoas muscle of New Zealand white rabbit (Oryctolagus cuniculus) ([46]). Filamentous (F)-actin was stored for up to 3 days on ice before use in binding assays. Within an hour of the binding assay, the F-actin was clarified at 100,000g at 4 °C for 10 min prior to setting up binding assays. The L253P β-III-spectrin ABD was expressed in E. coli BL21(DE3) (Novagen). The ABD was purified and the His-SUMO tag proteolytically removed, as previously described ([14]), except size-exclusion chromatography was not performed due to the high purity of the ABD protein. Lifeact-mCherry protein was similarly prepared. A Bradford assay was performed to determine clarified F-actin and ABD protein concentrations.
F-actin and ABD binding assays were performed as previously described ([10]). In brief, binding assays used 1 μM ABD protein, 1 μM F-actin, and 1 to 50 μM compound (as indicated) or DMSO control for a total reaction volume of 60 μl in F-buffer containing 10 mM Tris, pH 7.5, 150 mM NaCl, 0.5 mM ATP, 2 mM MgCl2, and 1 mM DTT. Following 30 min incubation at room temperature (21 °C). F-actin was pelleted using centrifugation at 100,000g at 25 °C for 30 min. Unbound ABD in the supernatant was measured following SDS-PAGE and Coomassie blue staining in accord ([10]). In addition, control cosedimentations assays that lacked actin were performed to test if compounds cause ABD aggregation. F-actin and Lifeact-mCherry binding assays were undertaken with 2 μM Lifeact-mCherry, 30 μM F-actin, and 1 to 50 μM compound (as indicated) or DMSO control for a total reaction volume of 80 μl in F-buffer. For a no-actin binding control, an assay sample with no F-actin was also set up. Binding reactions were allowed to reach equilibrium at room temperature (21 °C) for 30 min, and then F-actin was pelleted by centrifugation at 100,000g at 25 °C for 30 min. The amount of unbound Lifeact-mCherry was sampled by loading 7 μl of spin supernatant on a low-volume black bottom 384-well plate (Greiner). Amount of mCherry was determined by acquiring fluorescence spectrum peak intensity at ∼600 nm using a spectral unmixing plate reader (Fluorescence Innovations, Inc) equipped with a 532 nm laser (Laserglow Technologies, Ontario, Canada) for excitation, 532 nm long-pass filter for emission, and PMT for emission detection. The fraction of Lifeact-mCherry bound to F-actin was determined by subtracting from one the fraction of supernatant fluorescence intensity relative to the no-actin control sample:(3) Lifeactboundfraction=1−Fcompound/DMSO/FNo−actin where Fcontrol/DMSO is the peak mCherry fluorescence of assay samples containing compound or DMSO control, and Fno-actin is the peak mCherry fluorescence of assay samples that contained no F-actin.

[2] = test system: mammalian cells; conditions: 10 μM ref 36, 37, 38; cited from earlier work

Effect on actin-Lifeact cosedimentation ([1]; 10 μM Hit compound): decreased
SMILES: O=C(O)c1cc([N+](=O)[O-])ccc1NCCCc1ccccc1 [NPPB]

SMILES: CCCCCCCC/C=C\CCCCCCCC(=O)NCc1ccc(O)c(OC)c1 [olvanil]
Reduction of cell viability [2]: < 10%

SMILES: CO[C@H]1C[C@H](CC[C@H](C)[C@H](O)[C@H](C)[C@H]2OC(=O)/C=C/C(C)=C/C[C@H](O)C[C@@H]3C=CC[C@@H](C[C@H](OC)[C@@H](C)[C@@H](O)C[C@@H](O)[C@H](C)[C@@H]([C@@H](C)[C@@H](O)[C@@H](C)CC[C@H]4C[C@H](OC)C[C@H](C)O4)OC(=O)/C=C/C(C)=C/C[C@H](O)C[C@@H]4C=CC[C@@H](C[C@H](OC)[C@@H](C)[C@@H](O)C[C@@H](O)[C@@H]2C)O4)O3)O[C@@H](C)C1 [swinholide A]
Effect on Lifeact-mCherry cosedimentation with actin ([1]; 3 μM swinholide A, 50 μM tegaserod): reduces
